≈ marks a conversion by molar mass, not a printed value. Like-named read-outs stand apart in the source and are kept apart here.

Data set [1] concerns Staphylococcus aureus ATCC 33591. The experiment in a line: Antibacterial MIC, multidrug-resistant clinical isolate. Particulars: multidrug-resistant S. aureus ATCC 33591. Type of data set: cell-based. On the procedure: (§1) Test bacteria were grown to mid-log phase in Mueller–Hinton broth (MHB) or Tryptone Soya Broth (TSB) and diluted 1000-fold in the same medium. Bacteria (10^5 CFU/mL) were inoculated into MHB or TSB and dispensed at 0.2 ml/well into a 96-well microtiter plate. As positive controls, gatifloxacin, moxifloxacin, norfloxacin, oxacillin, and penicillin were used. […] Bacterial growth was determined by measuring the absorption at 630 nm using a microplate reader. All experiments were carried out three times.
(§2) The evaluation of antibacterial activity of all compounds (3a–3j and 6a–6k) was performed by a serial dilution method to determine the MIC against a panel of pathogens comprising five Gram-positive strains (S. aureus (CMCC(B) 26003 and CMCC 25923), Streptococcus mutans BNCC 336931, Enterococcus faecalis CMCC 29212, and Bacillus subtilis CMCC 63501), four Gram-negative strains (E. coli (CMCC 25922 and CMCC 44568) and P. aeruginosa (CMCC 27853 and CMCC 10104)), as well as three methicillin-resistant clinical isolates (S. aureus ATCC 43300 and ATCC 33591, P. aeruginosa ATCC BAA-2111). The results are described in Tables 1 and 2. Gatifloxacin, moxifloxacin, norfloxacin, oxacillin, and penicillin were used as positive controls.

The subject of data set [2] is Staphylococcus aureus ATCC 43300. Described as above. Type of data set: cell-based. Particulars: multidrug-resistant S. aureus ATCC 43300. The protocol: as §1, §2
The test system of data set [3] is Staphyiococcus aureus CMCC 25923. The experiment in a line: Antibacterial MIC, serial dilution. Type of data set: cell-based, Staphylococcus aureus. On the procedure:
as §1, §2

The test system of data set [4] is Pseudomonas aeruginosa CMCC 27853. The experiment in a line: Antibacterial MIC, serial dilution. Type of data set: cell-based. On the procedure: as §1, §2
Data set [5] relates to Escherichia coli CMCC 44568. The experiment in a line: Antibacterial MIC, serial dilution. Type of data set: cell-based. The protocol:
as §1, §2

Data set [6] deals with Staphylococcus aureus CMCC(B)26003. The experiment in a line: Antibacterial MIC, serial dilution. The data set is classed as cell-based. The protocol:
as §1, §2

For data set [7], the system named is Escherichia coli CMCC 25922. The experiment in a line: Antibacterial MIC, serial dilution. The data set is classed as cell-based. The protocol:
as §1, §2

The subject of data set [8] is Enterococcus faecalis CMCC 29212. The experiment in a line: Antibacterial MIC, serial dilution. The data set is classed as cell-based. Particulars: E. faecalis CMCC 29212, 24 h, 37 °C. On the procedure:
as §1, §2

Data set [9] relates to Bacillus subtilis CMCC 63501. The experiment in a line: Antibacterial MIC, serial dilution. Type of data set: cell-based. On the procedure:
as §1, §2

The subject of data set [10] is Streptococcus mutans BNCC 336931. The experiment in a line: Antibacterial MIC, serial dilution. As to conditions: S. mutans BNCC 336931, 24 h, 37 °C. Type of data set: cell-based. On the procedure:
as §1, §2

Data set [11] concerns Pseudomonas aeruginosa CMCC 10104. The experiment in a line: Antibacterial MIC, serial dilution. Type of data set: cell-based. As to conditions: P. aeruginosa CMCC 10104, 24 h, 37 °C. The protocol: as §1, §2
[12] abbreviates: Staphylococcus aureus, CMCC25923, S. aureus CMCC 25923, 24 h, 37 °C, read-out: MIC.
Where [13] appears, read: Pseudomonas aeruginosa, CMCC27853, P. aeruginosa CMCC 27853, 24 h, 37 °C, read-out: MIC.
[14] abbreviates: Escherichia coli, CMCC44568, E. coli CMCC 44568, 24 h, 37 °C, read-out: MIC.
Where [15] appears, read: Staphylococcus aureus, S. aureus CMCC(B)26003, 24 h, 37 °C, read-out: MIC.
Where [16] appears, read: Escherichia coli, CMCC25922, E. coli CMCC 25922, 24 h, 37 °C, read-out: MIC.
Setting [17] is: Enterococcus faecalis, CMCC29212, read-out: MIC.
Where [18] appears, read: Bacillus subtilis, CMCC63501, B. subtilis CMCC 63501, 24 h, 37 °C, read-out: MIC.
Where [19] appears, read: Streptococcus mutans, BNCC336931, read-out: MIC.
The mark [20] stands for this setting: Pseudomonas aeruginosa, CMCC10104, read-out: MIC.
Setting [21] is: Staphylococcus aureus, ATCC33591, read-out: MIC.
[22] abbreviates: Staphylococcus aureus, ATCC43300, read-out: MIC.
Setting [23] is: Escherichia coli, CMCC44568, 24 h.

With Penicillin [reference compound], the MIC (usually the smallest concentration in the dilution series that meets the test's criterion for growth inhibition) is more than 32 µg/mL in data set [1]; more than 32 µg/mL in [1] (listed as penicillin); 32 µg/mL in data set [2]; 0.125 µg/mL in [3] (S. aureus CMCC 25923, 24 h, 37 °C); more than 128 µg/mL in data set [4] (P. aeruginosa CMCC 27853, 24 h, 37 °C); more than 128 µg/mL in data set [5] (E. coli CMCC 44568, 24 h, 37 °C). Besides, the MIC in [6] (S. aureus CMCC(B)26003, 24 h, 37 °C) worked out at 0.125 µg/mL; in data set [7] (E. coli CMCC 25922, 24 h, 37 °C), 128 µg/mL; in [8], 128 µg/mL; in data set [9] (B. subtilis CMCC 63501, 24 h, 37 °C) it was 128 µg/mL; in data set [10] it was 0.125 µg/mL; in data set [11], 32 µg/mL.
Consider `N=C(N)NN=Cc1ccc(C#Cc2ccccc2Br)cc1` [Compound 3h, 2-(4-((2-Bromophenyl)ethynyl)benzylidene)hydrazine-1-carboximidamide], for which the melting point (usually the temperature of the solid-liquid transition) lay within 188 to 190 °C. Besides, in [3] (setting [12]), the MIC was found to be 1 µg/mL (≈ 2.93 µM). For the same molecule, the MIC in [4] (setting [13]) was more than 128 µg/mL. Also, the MIC in data set [5] (setting [14]) was 4 µg/mL (≈ 11.7 µM). Moreover, the MIC in [6] (setting [15]) came to 2 µg/mL (≈ 5.86 µM). In [7] (setting [16]), the MIC was determined as 4 µg/mL (≈ 11.7 µM). The MIC in data set [8] (setting [17]) was determined as 1 µg/mL (≈ 2.93 µM). The MIC in data set [9] (setting [18]) turned out to be 2 µg/mL (≈ 5.86 µM). For the same molecule, the MIC in data set [10] (setting [19]) came out at 2 µg/mL (≈ 5.86 µM). Also, the MIC in data set [11] (setting [20]) worked out at 8 µg/mL (≈ 23.4 µM).
Take `COc1c(N2C[C@@H]3CCCN[C@@H]3C2)c(F)cc2c(=O)c(C(=O)O)cn(C3CC3)c12` [Moxifloxacin, reference compound]: the MIC in data set [1] (setting [21]) stood at 0.25 µg/mL (≈ 0.623 µM); in data set [2] (setting [22]) it was 0.5 µg/mL (≈ 1.25 µM); in [3] (Staphylococcus aureus, CMCC25923, 24 h), 0.125 µg/mL (≈ 0.311 µM); in data set [5] (setting [23]) it was 0.125 µg/mL (≈ 0.311 µM); in data set [6] (Staphylococcus aureus, 24 h), 0.125 µg/mL (≈ 0.311 µM); in [7] (Escherichia coli, CMCC25922, 24 h) it was 0.125 µg/mL (≈ 0.311 µM). Besides, the MIC in data set [10] (setting [19]) came to 0.5 µg/mL (≈ 1.25 µM); in [11] (setting [20]), 4 µg/mL (≈ 9.96 µM).
For the molecule `Cc1onc(-c2ccccc2)c1C(=O)N[C@@H]1C(=O)N2[C@@H]1SC(C)(C)[C@@H]2C(=O)O` [Oxacillin, reference compound], the MIC was 8 µg/mL (≈ 19.9 µM) in data set [1] (setting [21]); 64 µg/mL (≈ 159 µM) in data set [2] (setting [22]); 0.125 µg/mL (≈ 0.311 µM) in data set [3] (setting [12]); more than 128 µg/mL in [4] (Pseudomonas aeruginosa, CMCC27853, 24 h); more than 128 µg/mL in data set [5] (setting [23]); 0.125 µg/mL (≈ 0.311 µM) in data set [6] (setting [15]). Moreover, the MIC in data set [7] (setting [16]) was 128 µg/mL (≈ 319 µM); in data set [8] (setting [17]) it was 128 µg/mL (≈ 319 µM); in data set [9] (Bacillus subtilis, CMCC63501, 24 h), more than 128 µg/mL; in [10] (setting [19]), 0.125 µg/mL (≈ 0.311 µM); in data set [11] (setting [20]), 128 µg/mL (≈ 319 µM).
With `N=C(N)NN=Cc1ccc(C#CC#Cc2ccccc2Br)cc1` [Compound 6h, 2-(4-((2-Bromophenyl)buta-1,3-diyn-1-yl)benzylidene)hydrazine-1-carboximidamide], the melting point was 217 to 219 °C. For the same molecule, the MIC in [3] (setting [12]) is 32 µg/mL (≈ 87.6 µM). In addition, the MIC in data set [4] (setting [13]) is more than 128 µg/mL. The MIC in [5] (setting [14]) amounted to 128 µg/mL (≈ 350 µM). Moreover, in data set [6] (setting [15]), the MIC was determined as 1 µg/mL (≈ 2.74 µM). The minimum inhibitory concentration (MIC) in data set [7] (setting [16]) was found to be 8 µg/mL (≈ 21.9 µM). Also, the minimal inhibitory concentration (MIC) in [8] (setting [17]) was 0.5 µg/mL (≈ 1.37 µM). Also, the minimal inhibitory concentration (MIC) in data set [9] (setting [18]) was 2 µg/mL (≈ 5.48 µM). Also, in data set [10] (setting [19]), the MIC was 1 µg/mL (≈ 2.74 µM). Besides, the MIC in data set [11] (setting [20]) stood at 8 µg/mL (≈ 21.9 µM).
For the molecule `N=C(N)NN=Cc1ccc(C#CC#Cc2ccc(Br)cc2)cc1` [Compound 6j, 2-(4-((4-Bromophenyl)buta-1,3-diyn-1-yl)benzylidene)hydrazine-1-carboximidamide], the melting point lay in the range of 227 to 230 °C. In data set [3] (setting [12]), the MIC was more than 128 µg/mL. Also, the MIC in [4] (setting [13]) was more than 128 µg/mL. For the same molecule, in data set [5] (setting [14]), the MIC was more than 128 µg/mL. The MIC in data set [6] (setting [15]) amounted to 128 µg/mL (≈ 350 µM). Further, the MIC in [7] (setting [16]) was more than 128 µg/mL. Further, in data set [8] (setting [17]), the MIC was 128 µg/mL (≈ 350 µM). The MIC in data set [9] (setting [18]) was more than 128 µg/mL. The MIC in data set [10] (setting [19]) is more than 128 µg/mL. In addition, the MIC in [11] (setting [20]) is more than 128 µg/mL.

The record behind these values is PMC6968633, “Synthesis, antibacterial and anticancer activity, and docking study of aminoguanidines containing an alkynyl moiety” (Journal of Enzyme Inhibition and Medicinal Chemistry, 2019).
